Experimental data reported in ChEMBL document CHEMBL1201861, “Genomics of Drug Sensitity in Cancer screening data, Wellcome Trust Sanger Institute”.

Key:
OPM-2 = test: cells; type: functional, cell-based, Homo sapiens; conditions: Homo sapiens, OPM-2
Description: SANGER: Inhibition of human OPM-2 cell growth in a cell viability assay.

CP50-MEL-B = test: cells; type: functional, cell-based; conditions: Homo sapiens
Description: SANGER: Inhibition of human CP50-MEL-B cell growth in a cell viability assay.

KP-N-YN = test: cells; type: functional, cell-based; conditions: Homo sapiens
Description: SANGER: Inhibition of human KP-N-YN cell growth in a cell viability assay.

NCI-H187 = test: cells; type: functional, cell-based, Homo sapiens; conditions: Homo sapiens, NCI-H187
Description: SANGER: Inhibition of human NCI-H187 cell growth in a cell viability assay.

SNU-C1 = test: cells; type: functional, cell-based, Homo sapiens; conditions: Homo sapiens, SNU-C1
Description: SANGER: Inhibition of human SNU-C1 cell growth in a cell viability assay.

AGS = test: cells; type: functional, cell-based; conditions: Homo sapiens
Description: SANGER: Inhibition of human AGS cell growth in a cell viability assay.

ASPC1 = test: cells; type: functional, cell-based; conditions: Homo sapiens
Description: SANGER: Inhibition of human AsPC-1 cell growth in a cell viability assay.

NY = test: cells; type: functional, cell-based; conditions: Homo sapiens
Description: SANGER: Inhibition of human NY cell growth in a cell viability assay.

SW1417 = test: cells; type: functional, cell-based; conditions: Homo sapiens
Description: SANGER: Inhibition of human SW1417 cell growth in a cell viability assay.

EFO-27 = test: cells; type: functional, cell-based; conditions: Homo sapiens
Description: SANGER: Inhibition of human EFO-27 cell growth in a cell viability assay.

G-401 = test: cells; type: functional, cell-based; conditions: Homo sapiens
Description: SANGER: Inhibition of human G-401 cell growth in a cell viability assay.

KYSE-70 cell line = test: cells; type: functional, cell-based; conditions: Homo sapiens
Description: SANGER: Inhibition of human KYSE-70 cell growth in a cell viability assay.

NCI-H1623 = test: cells; type: functional, cell-based; conditions: Homo sapiens
Description: SANGER: Inhibition of human NCI-H1623 cell growth in a cell viability assay.

SIG-M5 = test: cells; type: functional, cell-based, Homo sapiens; conditions: Homo sapiens, SIG-M5
Description: SANGER: Inhibition of human SIG-M5 cell growth in a cell viability assay.

A 172 = test: cells; type: functional, cell-based; conditions: Homo sapiens
Description: SANGER: Inhibition of human A172 cell growth in a cell viability assay.

TUR = test: cells; type: functional, cell-based, Homo sapiens; conditions: Homo sapiens, TUR
Description: SANGER: Inhibition of human TUR cell growth in a cell viability assay.

TALL-1 = test: cells; type: functional, cell-based, Homo sapiens; conditions: Homo sapiens, TALL-1
Description: SANGER: Inhibition of human TALL-1 cell growth in a cell viability assay.

TYK-nu = test: cells; type: functional, cell-based; conditions: Homo sapiens
Description: SANGER: Inhibition of human TYK-nu cell growth in a cell viability assay.

MG-63 = test: cells; type: functional, cell-based; conditions: Homo sapiens
Description: SANGER: Inhibition of human MG-63 cell growth in a cell viability assay.

L-540 = test: cells; type: functional, cell-based, Homo sapiens; conditions: Homo sapiens, L-540
Description: SANGER: Inhibition of human L-540 cell growth in a cell viability assay.

SK-MEL-24 = test: cells; type: functional, cell-based; conditions: Homo sapiens
Description: SANGER: Inhibition of human SK-MEL-24 cell growth in a cell viability assay.

HT-1080 = test: cells; type: functional, cell-based; conditions: Homo sapiens
Description: SANGER: Inhibition of human HT-1080 cell growth in a cell viability assay.

CAL-12T = test: cells; type: functional, cell-based; conditions: Homo sapiens
Description: SANGER: Inhibition of human CAL-12T cell growth in a cell viability assay.

MKN-45 = test: cells; type: functional, cell-based; conditions: Homo sapiens
Description: SANGER: Inhibition of human MKN45 cell growth in a cell viability assay.

HCC1806 = test: cells; type: functional, cell-based; conditions: Homo sapiens
Description: SANGER: Inhibition of human HCC1806 cell growth in a cell viability assay.

SK-MM-2 = test: cells; type: functional, cell-based, Homo sapiens; conditions: Homo sapiens, SK-MM-2
Description: SANGER: Inhibition of human SK-MM-2 cell growth in a cell viability assay.

IM-9 = test: SANGER: Inhibition of human IM-9 cell growth in a cell viability assay.; type: functional, cell-based; conditions: Homo sapiens, IM-9
T-24 = test: cells; type: functional, cell-based; conditions: Homo sapiens
Description: SANGER: Inhibition of human T-24 cell growth in a cell viability assay.

RMG-I = test: cells; type: functional, cell-based; conditions: Homo sapiens
Description: SANGER: Inhibition of human RMG-I cell growth in a cell viability assay.

FTC-133 = test: cells; type: functional, cell-based; conditions: Homo sapiens
LP-1 = test: cells; type: functional, cell-based, Homo sapiens; conditions: Homo sapiens, LP-1
Description: SANGER: Inhibition of human LP-1 cell growth in a cell viability assay.

NCI-H345 = test: cells; type: functional, cell-based, Homo sapiens; conditions: Homo sapiens, NCI-H345
Description: SANGER: Inhibition of human NCI-H345 cell growth in a cell viability assay.

23132-87 = test: cells; type: functional, cell-based; conditions: Homo sapiens
Description: SANGER: Inhibition of human 23132-87 cell growth in a cell viability assay.

SW48 = test: cells; type: functional, cell-based; conditions: Homo sapiens
Description: SANGER: Inhibition of human SW48 cell growth in a cell viability assay.

DMS-153 = test: cells; type: functional, cell-based, Homo sapiens; conditions: Homo sapiens, DMS-153
Description: SANGER: Inhibition of human DMS-153 cell growth in a cell viability assay.

Daudi = test: cells; type: functional, cell-based, Homo sapiens; conditions: Homo sapiens, Daudi
Description: SANGER: Inhibition of human Daudi cell growth in a cell viability assay.

NCI-H1436 = test: cells; type: functional, cell-based, Homo sapiens; conditions: Homo sapiens, NCI-H1436
Description: SANGER: Inhibition of human NCI-H1436 cell growth in a cell viability assay.

RPMI 8402 = test: SANGER: Inhibition of human RPMI-8402 cell growth in a cell viability assay.; type: functional, cell-based; conditions: Homo sapiens, RPMI 8402
A-431 = test: cells; type: functional, cell-based; conditions: Homo sapiens
Description: SANGER: Inhibition of human A431 cell growth in a cell viability assay.

CAL-62 = test: cells; type: functional, cell-based; conditions: Homo sapiens
Description: SANGER: Inhibition of human CAL-62 cell growth in a cell viability assay.

HT-3 = test: cells; type: functional, cell-based; conditions: Homo sapiens
Description: SANGER: Inhibition of human HT-3 cell growth in a cell viability assay.

SBC-5 = test: cells; type: functional, cell-based; conditions: Homo sapiens
Description: SANGER: Inhibition of human SBC-5 cell growth in a cell viability assay.

HT55 = test: cells; type: functional, cell-based; conditions: Homo sapiens
Description: SANGER: Inhibition of human HT55 cell growth in a cell viability assay.

NCI-H2452 = test: cells; type: functional, cell-based; conditions: Homo sapiens
Description: SANGER: Inhibition of human NCI-H2452 cell growth in a cell viability assay.

SiHa = test: cells; type: functional, cell-based; conditions: Homo sapiens
Description: SANGER: Inhibition of human SiHa cell growth in a cell viability assay.

HCC 2998 = test: cells; type: functional, cell-based; conditions: Homo sapiens
Description: SANGER: Inhibition of human HCC2998 cell growth in a cell viability assay.

SNU-16 = test: cells; type: functional, cell-based, Homo sapiens; conditions: Homo sapiens, SNU-16
Description: SANGER: Inhibition of human NCI-SNU-16 cell growth in a cell viability assay.

HCC70 = test: cells; type: functional, cell-based; conditions: Homo sapiens
Description: SANGER: Inhibition of human HCC70 cell growth in a cell viability assay.

RPMI-7951 = test: cells; type: functional, cell-based; conditions: Homo sapiens
Description: SANGER: Inhibition of human RPMI-7951 cell growth in a cell viability assay.

PC-3 = test: cells; type: functional, cell-based; conditions: Homo sapiens
Description: SANGER: Inhibition of human PC-3 cell growth in a cell viability assay.

NCI-H2052 = test: cells; type: functional, cell-based; conditions: Homo sapiens
Description: SANGER: Inhibition of human NCI-H2052 cell growth in a cell viability assay.

M059J = test: cells; type: functional, cell-based; conditions: Homo sapiens
Description: SANGER: Inhibition of human M059J cell growth in a cell viability assay.

REH = test: cells; type: functional, cell-based, Homo sapiens; conditions: Homo sapiens, REH
Description: SANGER: Inhibition of human REH cell growth in a cell viability assay.

SUP-T1 = test: cells; type: functional, cell-based, Homo sapiens; conditions: Homo sapiens, SUP-T1
Description: SANGER: Inhibition of human SUP-T1 cell growth in a cell viability assay.

DMS-79 = test: cells; type: functional, cell-based, Homo sapiens; conditions: Homo sapiens, DMS-79
Description: SANGER: Inhibition of human DMS-79 cell growth in a cell viability assay.

EC-GI-10 = test: cells; type: functional, cell-based, Homo sapiens; conditions: Homo sapiens, EC-GI-10
Description: SANGER: Inhibition of human EC-GI-10 cell growth in a cell viability assay.

MDA-MB-415 = test: cells; type: functional, cell-based; conditions: Homo sapiens
BC-3 = test: cells; type: functional, cell-based, Homo sapiens; conditions: Homo sapiens, BC-3
Description: SANGER: Inhibition of human BC-3 cell growth in a cell viability assay.

U-251 = test: cells; type: functional, cell-based; conditions: Homo sapiens
Description: SANGER: Inhibition of human U251 cell growth in a cell viability assay.

## CCCCCCCCCCCC1=C(O)C(=O)C=C(O)C1=O [EMBELIN]
OPM-2
  IC50: > 32000 nM
CP50-MEL-B
  IC50: > 32000 nM
KP-N-YN
  IC50: > 32000 nM
NCI-H187
  IC50: > 32000 nM
SNU-C1
  IC50: 10300 nM
AGS
  IC50: 8630 nM
ASPC1
  IC50: > 32000 nM
NY
  IC50: 4800 nM
SW1417
  IC50: > 32000 nM
EFO-27
  IC50: > 32000 nM
G-401
  IC50: 8320 nM
KYSE-70 cell line
  IC50: 15100 nM
NCI-H1623
  IC50: 25400 nM
SIG-M5
  IC50: 1310 nM
A 172
  IC50: 8780 nM
TUR
  IC50: > 32000 nM
TALL-1
  IC50: > 32000 nM
TYK-nu
  IC50: 22600 nM
MG-63
  IC50: 9640 nM
L-540
  IC50: 8420 nM
SK-MEL-24
  IC50: 4670 nM
HT-1080
  IC50: 4760 nM
CAL-12T
  IC50: 9730 nM
MKN-45
  IC50: 7980 nM
HCC1806
  IC50: > 32000 nM
SK-MM-2
  IC50: > 32000 nM
IM-9
  IC50: > 32000 nM
T-24
  IC50: > 32000 nM
RMG-I
  IC50: 9240 nM
FTC-133
  IC50: > 32000 nM
LP-1
  IC50: > 32000 nM
NCI-H345
  IC50: > 32000 nM
23132-87
  IC50: 23300 nM
SW48
  IC50: 31100 nM
DMS-153
  IC50: > 32000 nM
Daudi
  IC50: 5750 nM
NCI-H1436
  IC50: > 32000 nM
RPMI 8402
  IC50: 4050 nM
A-431
  IC50: 5760 nM
CAL-62
  IC50: 23300 nM
HT-3
  IC50: 27600 nM
SBC-5
  IC50: > 32000 nM
HT55
  IC50: > 32000 nM
NCI-H2452
  IC50: > 32000 nM
SiHa
  IC50: > 32000 nM
HCC 2998
  IC50: 6800 nM
SNU-16
  IC50: > 32000 nM
HCC70
  IC50: > 32000 nM
RPMI-7951
  IC50: 25600 nM
PC-3
  IC50: 14800 nM
NCI-H2052
  IC50: 8530 nM
M059J
  IC50: 13100 nM
REH
  IC50: 8620 nM
SUP-T1
  IC50: 7320 nM
DMS-79
  IC50: > 32000 nM
EC-GI-10
  IC50: > 32000 nM
MDA-MB-415
  IC50: 30000 nM
BC-3
  IC50: > 32000 nM
U-251
  IC50: 9690 nM

## C/C(=C\c1csc(C)n1)[C@@H]1C[C@@H]2O[C@]2(C)CCC[C@H](C)[C@H](O)[C@@H](C)C(=O)C(C)(C)[C@@H](O)CC(=O)O1 [PATUPILONE]
OPM-2
  IC50: > 32 nM
CP50-MEL-B
  IC50: 19 nM
KP-N-YN
  IC50: > 32 nM
NCI-H187
  IC50: > 32 nM
SNU-C1
  IC50: > 32 nM
AGS
  IC50: 2.58 nM
ASPC1
  IC50: > 32 nM
NY
  IC50: 1.56 nM
SW1417
  IC50: > 32 nM
EFO-27
  IC50: 1.69 nM
G-401
  IC50: 1.51 nM
KYSE-70 cell line
  IC50: 7.58 nM
NCI-H1623
  IC50: 16.9 nM
SIG-M5
  IC50: 0.169 nM
A 172
  IC50: 1.92 nM
TUR
  IC50: 1.86 nM
TALL-1
  IC50: > 32 nM
TYK-nu
  IC50: > 32 nM
MG-63
  IC50: 0.165 nM
L-540
  IC50: 10.7 nM
SK-MEL-24
  IC50: > 32 nM
HT-1080
  IC50: 0.842 nM
CAL-12T
  IC50: 0.239 nM
MKN-45
  IC50: 4.38 nM
HCC1806
  IC50: 1.38 nM
SK-MM-2
  IC50: 17.3 nM
IM-9
  IC50: > 32 nM
T-24
  IC50: 20.6 nM
RMG-I
  IC50: > 32 nM
FTC-133
  IC50: 30.5 nM
LP-1
  IC50: > 32 nM
NCI-H345
  IC50: > 32 nM
23132-87
  IC50: 3.67 nM
SW48
  IC50: 4.2 nM
DMS-153
  IC50: 29.3 nM
Daudi
  IC50: 24.8 nM
NCI-H1436
  IC50: 7.83 nM
RPMI 8402
  IC50: 4.45 nM
A-431
  IC50: < 0.125 nM
CAL-62
  IC50: 0.875 nM
HT-3
  IC50: 15 nM
SBC-5
  IC50: 0.912 nM
HT55
  IC50: > 32 nM
NCI-H2452
  IC50: > 32 nM
SiHa
  IC50: > 32 nM
HCC 2998
  IC50: 1.05 nM
SNU-16
  IC50: 31 nM
HCC70
  IC50: 4.79 nM
RPMI-7951
  IC50: 1.05 nM
PC-3
  IC50: 23.4 nM
NCI-H2052
  IC50: > 32 nM
M059J
  IC50: 1.34 nM
REH
  IC50: 1.76 nM
SUP-T1
  IC50: > 32 nM
DMS-79
  IC50: > 32 nM
EC-GI-10
  IC50: > 32 nM
MDA-MB-415
  IC50: 20 nM
BC-3
  IC50: 8.39 nM
U-251
  IC50: 10.8 nM
